In BindingDB's records for doi:10.1016/j.bmcl.2005.11.096 (Glaxosmithkline, 2006):
pEC50: −log10 of the molar value.

assay: Agonist activity as induced proliferation in Ba/F3-hTpoR murine lymphocyte expressing human TPOR

SMILES	pEC50
Cc1ccc(-c2csc(-c3nc4ccc(C=C5SC(S)=NC5=O)cc4[nH]3)c2)cc1C [5-((2-(4-(3,4-dimethylphenyl)thiophen-2-yl)-1H-benzo[d]imidazol-5-yl)methylene)-2-thioxothiazolidin-4-one]	6.11
Cc1ccc(-c2ccc(-c3nc4ccc(C=C5SC(S)=NC5=O)cc4[nH]3)s2)cc1C [5-((2-(5-(3,4-dimethylphenyl)thiophen-2-yl)-1H-benzo[d]imidazol-5-yl)methylene)-2-thioxothiazolidin-4-one]	5.76
CC(C)(C)c1ccc(-c2cccc(-c3nc4ccc(C=C5SC(S)=NC5=O)cc4[nH]3)n2)cc1 [5-((2-(6-(4-tert-butylphenyl)pyridin-2-yl)-1H-benzo[d]imidazol-5-yl)methylene)-2-thioxothiazolidin-4-one]	5.70
CC(C)(C)c1ccc(-c2cccc(-c3nc4ccc(C=C5SC(=S)NC5=O)cc4[nH]3)c2)cc1 [5-[1-[2-(4'-tert-Butyl-biphenyl-3-yl)-1H-benzoimidazol-5-yl]-methylidene]-2-thioxo-thiazolidin-4-one]	6.05

Results, then the compound that gave them:

pEC50	SMILES
5.00	CC(C)(C)c1ccc(-c2cccc(-c3nc4ccc(CC(C(=O)O)C(=O)O)cc4[nH]3)n2)cc1 [2-((2-(6-(4-tert-butylphenyl)pyridin-2-yl)-1H-benzo[d]imidazol-5-yl)methyl)malonic acid]
5.35	CC(=Cc1ccc2nc(-c3cccc(-c4ccc(C(C)(C)C)cc4)n3)[nH]c2c1)C(=O)O [3-(2-(6-(4-tert-butylphenyl)pyridin-2-yl)-1H-benzo[d]imidazol-5-yl)-2-methylacrylic acid]
6.14	CC(C)(C)c1ccc(-c2ccc(-c3nc4ccc(C=C5SC(=S)NC5=O)cc4[nH]3)o2)cc1 [5-((2-(5-(4-tert-butylphenyl)furan-2-yl)-1H-benzo[d]imidazol-5-yl)methylene)-2-thioxothiazolidin-4-one]
5.80	Cc1ccc(-c2cccc(-c3nc4ccc(C=C5SC(S)=NC5=O)cc4[nH]3)n2)cc1C [5-((2-(6-(3,4-dimethylphenyl)pyridin-2-yl)-1H-benzo[d]imidazol-5-yl)methylene)-2-thioxothiazolidin-4-one]
